Laboratory results published in ChEMBL document CHEMBL1159213, “Terezines A-D: new amino acid-derived bioactive metabolites from the coprophilous fungus Sporormiella teretispora” (1995).

Columns and labels:
Type in all cases: functional
[1] = tested on: Staphylococcus aureus; test: Antibacterial activity against Staphylococcus aureus ATCC 29213 at 100 ug/disk by standard disk assay; conditions: read-out: IZ
[2] = tested on: Bacillus subtilis; test: Antibacterial activity against Bacillus subtilis ATCC 6051 at 100 ug/disk by standard disk assay; conditions: read-out: IZ
[3] = tested on: Sordaria fimicola; test: Antifungal activity against Sordaria fimicola NRRL 6459 assessed as reduction in radial growth at 200 ug/disk by centerpoint inoculation disk assay; design: scale not given: the % may be the effect or the level left
[4] = tested on: Candida albicans; test: Antifungal activity against Candida albicans ATCC 14053 at 200 ug/disk by standard disk assay; conditions: read-out: IZ
[5] = tested on: Ascobolus; test: Antifungal activity against Ascobolus furfuraceus NRRL 6460 assessed as reduction in radial growth at 200 ug/disk by centerpoint inoculation disk assay; design: scale not given: the % may be the effect or the level left

## COc1nc(C(C)C)c(O)nc1[C@H](O)c1ccccc1 [TEREZINE A]
[1]
  zone of inhibition at 100 µg/disc: 8 mm
[2]
  zone of inhibition at 100 µg/disc: 8 mm
[3]
  Activity: 95%
[4]
  zone of inhibition at 200 µg/disc: 8 mm
[5]
  Activity: 95%

## COC1=N[C@](OC)(C(C)C)C(=O)N[C@@]1(O)[C@H](O)c1ccccc1 [TEREZINE B]
[2]
  zone of inhibition at 100 µg/disc: 8 mm

## COC1=N[C@@](OC)(C(C)C)C(=O)N[C@@]1(O)[C@H](O)c1ccccc1 [TEREZINE C]
[1]
  zone of inhibition at 100 µg/disc: 8 mm
[2]
  zone of inhibition at 100 µg/disc: 8 mm
[3]
  Activity: 41%

## CC(C)=CCc1cccc2c(C[C@@H]3NC(=O)[C@H](C)NC3=O)c[nH]c12 [TEREZINE D]
[3]
  Activity: 50%
